# Data published in patent US20090318678A1, “Stable C-Glycoside Sugar and C-Glycoconjugate Mimetics, Method for preparing same and uses Thereof in Particular in Cosmetics and Drugs” (TFCHEM, priority 2006, published 2009).
# Tested on: α-galactosidase and β-galactosidase
# Experiment: Test in the presence of glycosidase (resistance to galactosidases, monitored by 19F NMR)
# Type: in vitro ADME
# Settings: phosphate buffer 0.07 M, pH 7, 37° C.; α-galactosidase (5 units) and β-galactosidase (6.25 units); samples after 24, 48, 72, 96 and 120 hours
# Description: Indeed, it is known that the following compounds undergo enzymatic break-down (FIG. 25).
# The protocol used is as follows (FIG. 26)
# A solution of compound 17a1 (17.72 mg) in water (500 μl) is added to a solution of phosphate buffer (0.07 M; pH 7, 4 ml) containing α-galactosidase (5 units) and β-galactosidase (6.25 units) at 37° C. The reaction is monitored by ^19F NMR. Samples are taken after 24, 48, 72, 96 and 120 hours.
compound,measurement,value
C[C@H](NC(=O)[C@H](C)NC(=O)[C@@H](N)CCCCNC(=O)[C@H](F)[C@]1(O)O[C@H](CO)[C@H](O)[C@H](O)[C@H]1O)C(=O)O [Compound 17a1],resistance to glycosidases / stability (change of the starting product by 19F NMR),No change is observed and the starting product remains
